Converted amounts (≈) assume the structure as drawn. “Also recorded” adds a separate entry of the source.
What was measured:
[1] = Solubility of the free base; format: physicochemical; settings: for solubility in organic solvents / solubility in ethanol and acetone / solubility in methanol / solubility in water: free base; for solubility in organic solvents: chloroform, benzene, ethyl acetate, butyl acetate, ether, butanol, petroleum ether, n-hexane
[2] = test system: Gram-positive and Gram-negative bacteria; assay: Antibacterial spectrum (overall); format: cell-based; settings: in words
Description: (§1) In the following Table 4, the antibacterial spectra of Fortimicin KF and Fortimicin KG against various microorganisms are set forth.
(§2) (Minimum Inhibitory Concentration, γ/ml measured by
(§3) agar dilution method at pH 8.0)

[3] = test system: Bacillus subtilis No. 10707; assay: Antibacterial activity of the preparate (units/mg), paper disc method; format: cell-based
Method: After the completion of fermentation, the culture liquor is adjusted to pH 2.5 with concentrated sulfuric acid and is stirred for 30 minutes. Thereafter, about 7 kg of a filter aid, Radiolite No. 600 (product of Showa Kagaku Kogyo Co., Ltd.) is added to the culture liquor and the microbial cells are removed by filtration. The filtrate is adjusted to pH 7.5 by the addition of 6 N sodium hydroxide. The resulting filtrate is passed through a column packed with about 20 L. of a cation exchange resin, Amberlite IRC-50 (ammonia form). The active principles are adsorbed on the resin. After the resin is washed with water, elution of the active principles is carried out with 1 N aqueous ammonia. The eluate is subjected to determination of activity by a paper disc method using an agar plate of Bacillus subtilis No. 10707. Fractions showing activity are combined and concentrated under reduced pressure to about 1 L. The concentrate is passed through a column packed with 500 ml of an anion exchange resin, Dowex 1×2 (OH form) and then about 2 L. of water is passed through the column. In this manner, impurities are removed and the active principles are eluted with water. The active fractions are combined and concentrated under reduced pressure to about 100 ml. The concentrate is then passed through a column packed with about 50 ml of active carbon powder. The active principles are adsorbed on the active carbon. The column is washed with water. The effluent and washings are discarded. Elution is then carried out with 0.2 N sulfuric acid. The eluate is subjected to determination of activity by a paper disc method using Bacillus subtilis No. 10707. The active fractions are combined and passed through a column of an anion exchange resin, Dowex 44 (OH form) and elution of the active principles is carried out with water. The active fractions are combined and concentrated to about 60 ml. The concentrate is then freeze-dried to obtain a crude powder of Fortimicin complex. The yield of the crude powder is about 40 g.
(§4) The powder is charged over about 500 ml of silica gel in a glass column to form a uniform, thin layer. The silica gel is previously suspended in a mixed solvent of chloroform, ethanol, concentrated aqueous ammonia and acetone (2:2:1:2 by volume), and packed in the glass column to form a tight, uniform layer. The column is then thoroughly washed with the same solvent. After the crude powder is charged, the solvent having the same composition as described above is poured gradually into the column from the top and thereafter elution is carried out continuously at a flow rate of 50 ml/hour. The eluate is recovered in 20 ml fractions and the activity of each of the fractions is determined by a paper disc method using Bacillus subtilis No. 10707. First, Fortimicin KF is eluted followed by Fortimicin A and Fortimicin D. The active fractions are subjected to thin layer chromatography. The fractions containing Fortimicin KF are collected and concentrated under reduced pressure to remove the solvent.
The residue is dissolved in a small amount of water and then the solution is freeze-dried to obtain about 2 g of a purified preparate of the free base of Fortimicin KF.
as §4, with “This powder” for “The powder”, “the” for “the crude”, “10707. […]” for “10707. First, Fortimicin KF is eluted followed by Fortimicin A and Fortimicin D. The active fractions are subjected to thin layer chromatography. The fractions containing Fortimicin KF are collected and concentrated under reduced pressure to remove the solvent.”

[4] = test system: Salmonella typhosa ATCC 9992; assay: Minimum inhibitory concentration, agar dilution method at pH 8.0; format: cell-based; settings: Salmonella enterica
Description: as §1, §2, §3

[5] = test system: Bacillus subtilis No. 10707; assay: as above; format: cell-based
Description: as §1, §2, §3

[6] = test system: Klebsiella pneumoniae ATCC 10031; assay: as above; format: cell-based; settings: ATCC10031
Description: as §1, §2, §3

[7] = test system: Proteus vulgaris ATCC 6897; assay: as above; format: cell-based; settings: ATCC6897
Description: as §1, §2, §3

[8] = test system: Shigella sonnei ATCC 9290; assay: as above; format: cell-based; settings: ATCC9290
Description: as §1, §2, §3

Escherichia coli ATCC 26 = assay: as above; format: cell-based; settings: ATCC26
Description: as §1, §2, §3

[9] = test system: Staphylococcus aureus ATCC 6538P; assay: as above; format: cell-based; settings: ATCC6538P
Description: as §1, §2, §3

[10] = Example 3, before cellulose column chromatography
[11] = Example 3, purified preparate of the free base after cellulose column chromatography
[12] = purified preparate of the free base, Examples 1 and 2 (1 mg of a pure preparate defined as 1000 units)

| Structure (SMILES) | solubility in organic solvents [1] | solubility in ethanol and acetone [1] | solubility in methanol [1] | solubility in water [1] | solubility in the ordinary organic solvents [1] | antibacterial activity [2] | antibacterial activity ([2]; listed as KG) | activity [3, 10] | activity [3, 11] | activity ([3]; Example 4) | activity [3, 12] | MIC [4] | MIC [5] | MIC [6] | MIC [7] | MIC [8] | MIC (Escherichia coli ATCC 26) | MIC [9] | antibacterial activity ([2]; listed as KF) |
| --- | --- | --- | --- | --- | --- | --- | --- | --- | --- | --- | --- | --- | --- | --- | --- | --- | --- | --- | --- |
| CNC1C(O)C(OC2OC(C(C)N)=CCC2N)C(N)C(O)C1OC (stereo not drawn) [Fortimicin KG] | insoluble | slightly soluble | soluble | readily soluble; also recorded: very soluble | poorly soluble | strong antibacterial activity against a broad range of Gram-positive and Gram-negative bacteria | broad antibacterial activity | 860 units/mg | 980 units/mg | 985 units/mg | about 970 units/mg | 2.3 µg/mL (≈ 6.64 µM) | 4.5 µg/mL (≈ 13 µM) | 4.5 µg/mL (≈ 13 µM) | 4.5 µg/mL (≈ 13 µM) | 9 µg/mL (≈ 26 µM) | 4.5 µg/mL (≈ 13 µM) | 1.1 µg/mL (≈ 3.18 µM) |  |
| CNC1C(O)C(OC2OC(CN)=CCC2N)C(N)C(O)C1OC (stereo not drawn) [Fortimicin KF] | insoluble | slightly soluble | soluble | readily soluble; also recorded: very soluble | poorly soluble | strong antibacterial activity against a broad range of Gram-positive and Gram-negative bacteria |  | 860 units/mg | 980 units/mg | 985 units/mg | about 970 units/mg | 4.2 µg/mL (≈ 12.6 µM) | 4.2 µg/mL (≈ 12.6 µM) | 4.2 µg/mL (≈ 12.6 µM) | 4.2 µg/mL (≈ 12.6 µM) | 8.4 µg/mL (≈ 25.3 µM) | 4.2 µg/mL (≈ 12.6 µM) | 2.1 µg/mL (≈ 6.32 µM) | broad antibacterial activity |

Reference: US4209612A, “Fortimicin factors KF and KG and process for production thereof” (Abbott Laboratories, priority 1977, dated 1980)
